Data set [1] in a line: Photobleaching experiment, 785 nm laser radiation. Type of data set: physicochemical. The settings on record: aqueous medium, 37° C., 3 sec irradiation/1 sec dark repeated for 1 h. How it is done: A further advantage of the present invention is the improved photostability of the dye with respect to the free dye in water solution. An experiment was performed in aqueous medium by the exposition of free ICG solution and the ICG loaded SLNs suspension to a 785 nm laser radiation (see FIG. 2, Example 8). The fluorescence emissions were collected by NIR fluorescent imaging system (Pearl® Impulse system by LI-COR Biosciences). […] Then, the experiment was carried out in duplicate at 37° C. irradiating both samples for 3 sec and keeping the samples in the dark for 1 sec. This sequence was repeated in continuous for 1 h.
The photobleaching experiment was performed by the exposition of free ICG aqueous solution and the ICG loaded SLNs suspension to a 785 nm laser radiation The fluorescence emissions were collected by NIR fluorescent imaging system (Pearl Impulse system by LI-COR Biosciences).
Then, the experiment was carried out in duplicate at 37° C. irradiating both samples for 3 sec and keeping the samples in the dark for 1 sec. This sequence was repeated in continuous for 1 h.

Data set [2] can be described thus: UV-Vis spectra for J-aggregates evaluation. Type of data set: physicochemical. As to conditions: SLNs suspension up to 120 days, free ICG in aqueous solution up to 15 days. How it is done: In FIG. 4 (panel A, Example 7) there are reported the UV-Vis spectra of ICG-loaded SLNs suspension just after the formulation date and 90 and 120 days later. […] The absorbance at 800 nm is recovered at 96% with respect to the initial value. In addition, the fluorescence emission properties can be preserved by the incorporation of ICG in the SLNs over the observed period of time (data not shown).
UV-Vis spectra of ICG-loaded SLNs suspension, prepared as described in the example 4, were recorded after the end of the formulation date, 90 and 120 days later keeping the suspension at store condition. After 120 days the absorbance was recovered at 96% with respect to the initial value (FIG. 4 A).
A solution of ICG (0.14 mg/mL) was prepared in glucosate (5.5%) solution. The sample was diluted before the Uv-Vis analysis and the absorption behaviour was evaluated from 300 to 950 nm until 15 days (FIG. 4 B).

Data set [3] can be described thus: Optical properties (absorption and emission maxima, Stokes' shift). The data set is classed as physicochemical. As to conditions: SLNs formulation (example 4) or H2O. An excerpt: Additional optical features (i.e. maximum absorption and emission wavelengths, Stokes' shifts) of ICG in aqueous medium and after incorporation in the SLNs are reported in Table E.
For data set [4] the following is noted: human recommended dose of 0.5 mg/kg, intravenous; cited from earlier work.
The conditions of data set [5]: tendency to aggregate; cited from earlier work.

Take `CC1(C)C(/C=C/C=C/C=C/C=C2/N(CCCCS(=O)(=O)[O-])c3ccc4ccccc4c3C2(C)C)=[N+](CCCCS(=O)(=O)[O-])c2ccc3ccccc3c21.[Na+]` [ICG, Indocyanine Green]: in data set [1], the “fluorescence emission remaining, of the initial emission fluorescence efficiency” value was “slightly above zero”. In addition, the “aggregates (J-aggregates) formation” value in data set [2] is listed as “can aggregate in few days”. Also, in data set [3], the “A max wavelength (nm)” value came to 780 nm, the “Fluor. Emission λmax (nm)” value is on record as 809 nm and the “Stokes' shift” value stood at 29. In data set [4], the blood half-time result is on record as “around 3.0 minutes”. In addition, the “time within which aqueous solution must be used” value in data set [5] was ≤ 6 h.

Values taken from patent US10780184B2, “Fluorescent solid lipid nanoparticles composition and preparation thereof” (BRACCO IMAGING S.P.A., priority 2013, dated 2020).
